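Values below derive from 48-hour exposures of cells grown in 96-well plates, with endpoints linearly interpolated between the two concentrations bracketing the appropriate inhibition level. At the TGI there is no net growth.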
Experiments:
Assay in all cases: NCI tumour cell line growth inhibition, 48 h
786-0 renal = tested on: 786-0 renal
A498 renal = tested on: A498 renal
A549 NSCLC = tested on: A549 NSCLC
ACHN renal = tested on: ACHN renal
CAKI-1 renal = tested on: CAKI-1 renal
CCRF-CEM leukemia = tested on: CCRF-CEM leukemia
COLO 205 colon = tested on: COLO 205 colon
DMS 114 small cell lung = tested on: DMS 114 small cell lung
DMS 273 small cell lung = tested on: DMS 273 small cell lung
EKVX NSCLC = tested on: EKVX NSCLC
HCC-2998 colon = tested on: HCC-2998 colon
HCT-116 colon = tested on: HCT-116 colon
HCT-15 colon = tested on: HCT-15 colon
HOP-18 NSCLC = tested on: HOP-18 NSCLC
HOP-62 NSCLC = tested on: HOP-62 NSCLC
HOP-92 NSCLC = tested on: HOP-92 NSCLC
HT29 colon = tested on: HT29 colon
IGROV1 ovarian = tested on: IGROV1 ovarian
K-562 leukemia = tested on: K-562 leukemia
KM12 colon = tested on: KM12 colon
KM20L2 colon = tested on: KM20L2 colon
LXFL 529 NSCLC = tested on: LXFL 529 NSCLC
M14 melanoma = tested on: M14 melanoma
M19-MEL melanoma = tested on: M19-MEL melanoma
MALME-3M melanoma = tested on: MALME-3M melanoma
MOLT-4 leukemia = tested on: MOLT-4 leukemia
NCI-H226 lung = tested on: NCI-H226 lung
NCI-H23 lung = tested on: NCI-H23 lung
NCI-H460 lung = tested on: NCI-H460 lung
NCI-H522 lung = tested on: NCI-H522 lung
OVCAR-3 ovarian = tested on: OVCAR-3 ovarian
OVCAR-4 ovarian = tested on: OVCAR-4 ovarian
OVCAR-5 ovarian = tested on: OVCAR-5 ovarian
OVCAR-8 ovarian = tested on: OVCAR-8 ovarian
RPMI-8226 leukemia = tested on: RPMI-8226 leukemia
SF-268 CNS = tested on: SF-268 CNS
SF-295 CNS = tested on: SF-295 CNS
SF-539 CNS = tested on: SF-539 CNS
SK-MEL-28 melanoma = tested on: SK-MEL-28 melanoma
SK-MEL-5 melanoma = tested on: SK-MEL-5 melanoma
SK-OV-3 ovarian = tested on: SK-OV-3 ovarian
SN12C renal = tested on: SN12C renal
SNB-19 CNS = tested on: SNB-19 CNS
SNB-75 CNS = tested on: SNB-75 CNS
SNB-78 CNS = tested on: SNB-78 CNS
SW-620 colon = tested on: SW-620 colon
TK-10 renal = tested on: TK-10 renal
U251 CNS = tested on: U251 CNS
UACC-257 melanoma = tested on: UACC-257 melanoma
UACC-62 melanoma = tested on: UACC-62 melanoma
UO-31 renal = tested on: UO-31 renal
DLD-1 colon = tested on: DLD-1 colon
LOX IMVI melanoma = tested on: LOX IMVI melanoma
SK-MEL-2 melanoma = tested on: SK-MEL-2 melanoma
SR leukemia = tested on: SR leukemia

CC(C)(C)c1ccc(OC2CCO2)cc1 (centres undefined)
TGI (786-0 renal): 63.3 µM
TGI (A498 renal): > 100 µM
TGI (A549 NSCLC): > 100 µM
TGI (ACHN renal): > 100 µM
TGI (CAKI-1 renal): > 100 µM
TGI (CCRF-CEM leukemia): 65 µM
TGI (COLO 205 colon): 70.5 µM
TGI (DMS 114 small cell lung): > 100 µM
TGI (DMS 273 small cell lung): > 100 µM
TGI (EKVX NSCLC): 90.1 µM
TGI (HCC-2998 colon): 94.1 µM
TGI (HCT-116 colon): 41.8 µM
TGI (HCT-15 colon): 36.9 µM
TGI (HOP-18 NSCLC): > 100 µM
TGI (HOP-62 NSCLC): > 100 µM
TGI (HOP-92 NSCLC): 82 µM
TGI (HT29 colon): 50.9 µM
TGI (IGROV1 ovarian): > 100 µM
TGI (K-562 leukemia): 39.1 µM
TGI (KM12 colon): 70.2 µM
TGI (KM20L2 colon): 52.8 µM
TGI (LXFL 529 NSCLC): > 100 µM
TGI (M14 melanoma): > 100 µM
TGI (M19-MEL melanoma): 56.1 µM
TGI (MALME-3M melanoma): > 100 µM
TGI (MOLT-4 leukemia): 72.3 µM
TGI (NCI-H226 lung): 92.8 µM
TGI (NCI-H23 lung): > 100 µM
TGI (NCI-H460 lung): 53.3 µM
TGI (NCI-H522 lung): 52.5 µM
TGI (OVCAR-3 ovarian): > 100 µM
TGI (OVCAR-4 ovarian): > 100 µM
TGI (OVCAR-5 ovarian): 98.7 µM
TGI (OVCAR-8 ovarian): > 100 µM
TGI (RPMI-8226 leukemia): 47 µM
TGI (SF-268 CNS): 81.5 µM
TGI (SF-295 CNS): > 100 µM
TGI (SF-539 CNS): 98.6 µM
TGI (SK-MEL-28 melanoma): > 100 µM
TGI (SK-MEL-5 melanoma): > 100 µM
TGI (SK-OV-3 ovarian): > 100 µM
TGI (SN12C renal): 38.1 µM
TGI (SNB-19 CNS): > 100 µM
TGI (SNB-75 CNS): > 100 µM
TGI (SNB-78 CNS): > 100 µM
TGI (SW-620 colon): 30.9 µM
TGI (TK-10 renal): > 100 µM
TGI (U251 CNS): 35.3 µM
TGI (UACC-257 melanoma): 87.3 µM
TGI (UACC-62 melanoma): > 100 µM
TGI (UO-31 renal): > 100 µM

C=C1C(=O)C23C(O)CC4C5(C)CCCC4(C(O)OC5)C2C(OC(C)=O)CC1C3O (centres undefined)
TGI (786-0 renal): 19.2 µM
TGI (A549 NSCLC): 51.5 µM
TGI (ACHN renal): 25.3 µM
TGI (CAKI-1 renal): 17.8 µM
TGI (CCRF-CEM leukemia): 10.7 µM
TGI (COLO 205 colon): 18.9 µM
TGI (DLD-1 colon): 20.6 µM
TGI (DMS 114 small cell lung): 22.2 µM
TGI (DMS 273 small cell lung): 41.3 µM
TGI (EKVX NSCLC): 27.7 µM
TGI (HCC-2998 colon): 32.4 µM
TGI (HCT-116 colon): 18.5 µM
TGI (HCT-15 colon): 27.4 µM
TGI (HOP-18 NSCLC): 30.4 µM
TGI (HOP-62 NSCLC): 32.2 µM
TGI (HOP-92 NSCLC): 14.6 µM
TGI (HT29 colon): 17.6 µM
TGI (IGROV1 ovarian): 39.2 µM
TGI (K-562 leukemia): 11.7 µM
TGI (KM12 colon): 22.1 µM
TGI (KM20L2 colon): 21.2 µM
TGI (LOX IMVI melanoma): 29.2 µM
TGI (LXFL 529 NSCLC): 12.2 µM
TGI (M14 melanoma): 15.1 µM
TGI (M19-MEL melanoma): 30.7 µM
TGI (MALME-3M melanoma): 28.8 µM
TGI (MOLT-4 leukemia): 17 µM
TGI (NCI-H226 lung): 37.1 µM
TGI (NCI-H23 lung): 19.3 µM
TGI (NCI-H460 lung): 15.9 µM
TGI (NCI-H522 lung): 3.64 µM
TGI (OVCAR-3 ovarian): 28.2 µM
TGI (OVCAR-4 ovarian): 27.8 µM
TGI (OVCAR-5 ovarian): 31.9 µM
TGI (OVCAR-8 ovarian): 14.1 µM
TGI (RPMI-8226 leukemia): 17.7 µM
TGI (SF-268 CNS): 32.4 µM
TGI (SF-295 CNS): 41.4 µM
TGI (SF-539 CNS): 25.8 µM
TGI (SK-MEL-2 melanoma): 30.3 µM
TGI (SK-MEL-28 melanoma): 22.7 µM
TGI (SK-MEL-5 melanoma): 31.1 µM
TGI (SK-OV-3 ovarian): 37.1 µM
TGI (SN12C renal): 24.3 µM
TGI (SNB-19 CNS): 28.1 µM
TGI (SNB-75 CNS): 16.6 µM
TGI (SNB-78 CNS): 33.9 µM
TGI (SR leukemia): 18.5 µM
TGI (SW-620 colon): 10.6 µM
TGI (TK-10 renal): 23.1 µM
TGI (U251 CNS): 30.7 µM
TGI (UACC-62 melanoma): 19.8 µM
TGI (UO-31 renal): > 100 µM
